Assay results: ChEMBL document CHEMBL1125954, “Studies on quinazolinones. 3: 1 novel and efficient route to the synthesis of conformationally restricted analogues of ketanserin and SGB-1534 as antihypertensive agents” (Bioorg Med Chem Lett, 1991)

Molecular target: Adrenergic receptor alpha-1 (Rattus norvegicus) (UniProt P15823+P23944+P43140)
Experiment: Compound was tested for antihypertensive activity mediated through Alpha-1 adrenergic receptor in anesthetized rat
Format: functional

ED50: 0.25 mg/kg
SMILES: O=C1Nc2ccccc2C2=NC(CN3CCN(c4ccccc4)CC3)CN12 (stereo unspecified)
